Nine compounds from patent US9050266B2, “Phenol derivatives and pharmaceutical or cosmetic use thereof” (GALDERMA RESEARCH & DEVELOPMENT, priority 2009, dated 2015) can be followed below.

Data set [1] addresses T1, receptors of AR type (androgen receptor) (Homo sapiens, UniProt P10275).
T1 construct: expressed in transfected cells; host or cells: PALM cell line (PC3 stably transfected with PMMTV-neo-Luc and pSG5puro-AR)
T1 sequence (P10275 1-920): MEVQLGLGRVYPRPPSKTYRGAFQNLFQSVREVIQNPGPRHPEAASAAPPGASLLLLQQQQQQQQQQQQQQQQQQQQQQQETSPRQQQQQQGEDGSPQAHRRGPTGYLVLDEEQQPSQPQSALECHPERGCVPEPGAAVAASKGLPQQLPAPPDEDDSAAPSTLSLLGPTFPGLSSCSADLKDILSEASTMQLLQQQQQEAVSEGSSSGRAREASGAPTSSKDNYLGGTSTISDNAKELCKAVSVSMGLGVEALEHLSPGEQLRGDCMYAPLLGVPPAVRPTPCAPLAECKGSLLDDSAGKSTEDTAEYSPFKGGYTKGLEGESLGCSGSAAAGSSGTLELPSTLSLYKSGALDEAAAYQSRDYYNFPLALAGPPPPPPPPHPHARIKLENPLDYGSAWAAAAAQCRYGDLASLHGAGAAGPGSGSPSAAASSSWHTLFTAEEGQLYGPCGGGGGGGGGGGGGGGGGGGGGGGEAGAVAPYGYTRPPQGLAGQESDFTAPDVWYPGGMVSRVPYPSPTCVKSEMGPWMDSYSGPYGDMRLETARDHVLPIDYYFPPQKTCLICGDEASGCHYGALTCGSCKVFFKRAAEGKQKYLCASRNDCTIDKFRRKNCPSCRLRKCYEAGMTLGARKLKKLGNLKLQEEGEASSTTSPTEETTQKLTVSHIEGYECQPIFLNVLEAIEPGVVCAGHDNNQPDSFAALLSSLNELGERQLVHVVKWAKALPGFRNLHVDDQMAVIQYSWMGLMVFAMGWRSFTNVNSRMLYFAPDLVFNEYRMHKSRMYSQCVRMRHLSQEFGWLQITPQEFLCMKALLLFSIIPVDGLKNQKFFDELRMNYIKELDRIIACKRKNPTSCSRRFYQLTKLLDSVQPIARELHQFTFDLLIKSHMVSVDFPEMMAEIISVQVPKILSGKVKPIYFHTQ
In words: AR transactivation test in the PALM (PC3 Androgen receptor Luciferse MMTV) cell line, cross curves against methyltrienolone. It is filed as cell-based. The settings on record: cross curves vs reference agonist methyltrienolone, read-out: Kdapp (apparent dissociation constant). As to the method: The compounds according to the invention show inhibitory properties on receptors of AR type. This AR receptor-inhibiting activity is measured in a transactivation test through the KdR (resting), KdA (active) and Kdapp (apparent) dissociation constants according to the method set out in J. Molecular Biology (1965), 12(1), 88-118, Monod J. et al.
The expression “AR-type receptor inhibitor” means, according to the invention, any compound which has a Kdapp dissociation constant of less than or equal to 1 μM, and a KdR/KdA ratio ≦10, in a transactivation test.
The transactivation test is carried out in the PALM (PC3 Androgen receptor Luciferse MMTV) cell line which is a stable transfectant containing the PMMTV-neo-Luc (reporter gene) and pSG5puro-AR plasmids.
In this study, the affinity of each product for the 2 receptor states (KdR and KdA) is determined, as is an apparent Kd (KdApp). This constant is a result of the 2 Kd, but also depends on the initial equilibrium of the receptor between the active state and the resting state (L0) and on its expression level. It is determined by means of the following formula: 1/KdApp=(L0/(1+L0))×(1/KdR)+(1/(1+L0))×(1/KdA)
To determine these constants, “cross curves” of the test product against a reference agonist, methyltrienolone, are produced in 96-well plates. The test product is used at 10 concentrations and the reference agonist at 7 concentrations.

Consider `Cc1cc(Cl)nc(NCc2ccccc2O)c1` [Example 18, 2-[(6-chloro-4-methyl-pyridin-2-ylamino)-methyl]-phenol], for which, in data set [1], the Kd was found to be 1000 nM. `COc1cncc(NCc2ccccc2O)n1` [Example 19, 2-[(6-Methoxypyrazin-2-ylamino)methyl]phenol] gave a melting point of 158 °C. Moreover, the Kd in data set [1] was 8 nM.

In turn, `C[S+]([O-])c1cccc(NCc2ccccc2O)n1` (centres unmarked) [Example 23, 2-[(6-Methanesulphinylpyridin-2-ylamino)methyl]phenol] yielded a melting point of 133 °C.

For `Oc1ccccc1CNc1cncc(Br)n1` [Example 13, 2-[(6-Bromopyrazin-2-ylamino)methyl]phenol], the melting point came to 168 °C. With `Oc1ccccc1CNc1cccc(Br)n1` [Example 2, 2-[(6-bromo-pyridin-2-ylamino)-methyl]-phenol], the Kd in data set [1] turned out to be 2 nM. `CSc1cccc(NCc2ccccc2O)n1` [Example 22, 2-[(6-Methylsulphanylpyridin-2-ylamino)methyl]phenol] came in with a melting point of 61 °C. Turning to `N#Cc1cccc(NCc2ccccc2O)n1` [Example 4, 6-(2-hydroxy-benzyl-amino)-pyridine-2-carbonitrile], the Kd in data set [1] is 200 nM.

In the case of `COc1nccc(NCc2ccccc2O)n1` [Example 20, 2-[(2-Methoxypyrimidin-4-ylamino)methyl]phenol], the melting point is 161 °C. Consider `COc1cccc(NCc2ccccc2O)n1` [Example 1, 2-[(6-Methoxypyridin-2-ylamino)methyl]phenol], for which the melting point came out at 103 °C. Also, the Kd in data set [1] is 40 nM.
